In patent US20080075786A1, “Antimicrobial agents derived from cream” (Universite de Montreal, priority 2006, published 2008):
Where two headings read alike, the source gives them in different places.

How the values were obtained:
[1] = tested on: Candida albicans SC5314 strain; experiment: Germination inhibition assay (antihyphal growth activity); assay type: cell-based; conditions: for activity at inhibiting C. albicans germination: individual commercial free fatty acids, highest concentration used 81 μM
Procedure: The Candida albicans SC5314 strain (Fonzi, W. A. and Irwin, M. Y. 1993. Isogenic strain construction and gene mapping in Candida albicans. Genetics 134: 717-728.) was used to investigate the antihyphal activity of whey cream lipids. This strain was routinely grown as yeast cells at 30° C. in YPD medium (1% yeast extract, 2% peptone, 2% dextrose). Germination was induced by incubating cells in dextrose-free Sabouraud (Difco; Joshi, K. R., Gavin, J. B., and Bremner, D. A. 1973. The formation of germ tubes by Candida albicans in various peptone media. Sabouraudia. 11: 259-262.) at 37° C. in 96-wells microtiter plates (Costar 3595). Briefly, cells from fresh YPD cultures were harvested and washed twice with sterile water. Washed cells were suspended in dextrose-free Sabouraud at a density of 5×10^3 cells/ml and then immediately distributed to microtiter wells containing an equal volume of dextrose-free Sabouraud supplemented with different concentrations of lipids. After 15 h incubation at 37° C. in an atmospheric incubator without agitation, cells were washed and fixed with a fresh 1% formaldehyde solution. The ability of lipids to inhibit germination was determined by microscopic observations.

C. albicans yeast cells = conditions: 10 mM; cited from earlier work
mammalian cells = experiment: Toxicity for mammalian cells in vitro; assay type: cell-based; conditions: thousand fold less concentrated solution than 10 mM; Bergsson et al., 2001; data not shown
[2] = tested on: Candida albicans ZK3379 strain (CAI-4 HWP1-lacZ); experiment: C. albicans HWP1-lacZ beta-galactosidase and XTT assays (kinetics of germination inhibition in hyphae inducing media); assay type: cell-based; conditions: for germ tube emergence and elongation: all inducing conditions tested (dextrose-free Sabouraud, Lee's, Spider, HFM7), 0-6 h (FIG. 2)
Procedure: Candida albicans ZK3379 strain (CAI-4 HWP1-lacZ; Hogan, D A, Vik A, Kolter R (2004). A Pseudomonas aeruginosa quorum-sensing molecule influences Candida albicans morphology. Mol Microbiol 54: 1212-1223.) was used for beta-galactosidase and XTT assays. Cells from this strain were grown in YPDA at 30° C. to a density of about 1×10^8 cells/ml (hemacytometer). These late exponentially growing cells were then washed twice with water and kept on ice until used. Germination was induced by incubating cells (final density of 5×10^5 cells/ ml) at 37° C. in 2.5 ml of either dextrose-free Sabouraud (Joshi et al., 1973), Lee's (Lee K L, Buckley H R, Campbell C C (1975). An amino acid liquid synthetic medium for the development of mycelial and yeast forms of Candida albicans. Sabouraudia 13: 148-153, Spider (Liu H, Kohler J, Fink Gr (1994). Suppression of hyphal formation in Candida albicans by mutation of a STE12 homolog. Science 266: 1723-1726 or Hypha-Forming Media (Biswas S K, Yokoyama K, Kamei K, Nishimur K, Miyaji M (2001) Inhibition of hyphal growth of Candida albicans by activated lansoprazole, a novel benzimidazole proton pump inhibitor Med Mycol 39: 283-285.), supplemented with FFAs. All lipids were dissolved in ethanol. Assays were performed in duplicate in 24-wells mictotiter plates (Costar 3526) without agitation. After appropriate incubation times (i.e. 0, 2, 4 or 6 h), microtiter plates were centrifuged for 5 min at 2000 rpm (Jouan inc. CR3i) and supernatents, discarded. XTT assays were done immediately and essentially as described (Honraet K, Goetghebeur E, Nelis H J (2005). Comparison of three assays for the quantification of Candida biomass in suspension and CDC reactor grown biofilms. J Microbiol Methods 63: 287-295). For beta-galactosidase assays, microtiter plates were frozen at −80° C. and processed later as described (Kippert F (1995). A rapid permeabilization procedure for accurate quantitative determination of beta-galactosidase activity in yeast cells. FEMS Microbiol Lett 128: 201-206; Hogan et al., 2004) but directly in microtiters plates. Absorbances were measured in 96-well microtiters plates using a microtiter plate reader (Microplate Reader MR600), equipped with filters of 410 nm (beta-galactosidase) and 490 nm (XTT), respectively.
As inhibition of germination of C. albicans by molecules could be the result of early and/or late blocking events, a more comprehensive analysis of the activity of free fatty acids was performed using multiple time points and other germ tube inducing media. Therefore, germination was monitored at 0, 2, 4 and 6 h in dextrose-free Sabouraud, Lee's, Spider and HFM7 (i.e. serum) media using the C. albicans HWP1-lacZ assay: beta-galactosidase measurements should reflect the morphological change from yeast cells to hyphal growth (Hogan et al., 2004). beta-galactosidase results were normalized using the XTT assay (Honraet et al., 2005) to correct for biomass increase. Microscopic observations of cells after 6 h incubation are also presented for each inducing conditions and correlated with beta-galactosidase data (FIG. 2).

[3] = Cytotoxicity assay (LDH release); conditions: human
Procedure: Cytotoxicity was evaluated using Peripheral Blood Mononuclear cells (PBMC) of volunteers donors (Royal Victoria Hospital, Montreal). These cells were purified by the ficoll-Paque PLUS according to the manufacturer (Amersham-Bioscience). PBMC were used at a density of 100 000 cells/ml in RPMI 1640 (Sigma) supplemented with 10% heat-inactivated fetal bovine serum, 0.3 g/L of L-glutamine, 2 g/L sodium carbonate, 100 U/ml of penicillin and 100 μg/ml of streptomycin (Sigma). Assays were done in 96-well microtiter plates (Costar 3595) and the cytotoxicity was evaluated after 24 hours of incubation at 37° C. in a 5% CO2 atmospheric incubator using the LDH Cytotoxicity detection kit, according to the manufacturer (Roche Diagnostic). […] FFA were diluted in ethanol (96%) and no more than 1% ethanol (final concentration) was used in assays. Ethanol (1%) was used as negative control.
This method measures the release of lactate dehydrogenase (LDH) from the cytosol of damaged cells into the supernatant (Roche Diagnostic).

[4] = tested on: C. albicans SC5314 strain; experiment: Antifungal assay against C. albicans (optical density at 630 nm); assay type: cell-based, Candida albicans; conditions: Candida albicans, SC5314, 40 h, dextrose-free Sabouraud, 37° C., commercial FFA
Procedure: (§1) Fractionation of Blackcurrant Seed Oil. Journal of the American Oil Chemists Society 65: 755-760). […] Under constant stirring, the mixture was heated to 75° C., or until it became clear, and then cooled slowly to 2° C. After completion of urea crystallization at 2° C. (15 h), the UFFA enriched methanol phase was separated from the urea crystals by centrifugation (5 min) at 1000×g. […] Yields were determined gravimetrically. […] UV detection was used to monitor effluent at 215 nm. Water (10 ml) was added to each of the 45 collected HPLC fractions, and they were then extracted three times with hexane (3×10 ml). […] Antifungal assay using commercial FFA were done in quadruplicates. The antifungal activity was evaluated in 96-well microtiter plates (Costar 3595) using Sabouraud as incubating medium for A. fumigatus and dextrose-free Sabouraud for C. albicans. Spores of A. fumigatus (Jeanine Joly, Université de Montréal) were germinated at 25° C. on slant agar Sabouraud media. They were harvested by washing vigorously slant cultures with 5 ml of 0.9% NaCl. Coarse debris were removed by filtrating the Aspergillus spores suspension through a sterile cotton plugs inserted into a Pasteur pipet. Monodisperse spores suspensions were obtained following brief sonications in a water bath sonicator (Branson 1210). […] Blastospores of the C. albicans SC5314 strain were prepared as for germination inhibition assays (see above). […] Wells were washed three times with Sabouraud before optical reading.

A. fumigatus = experiment: Antifungal assay against A. fumigatus (optical density at 630 nm); assay type: cell-based
Procedure: as §1

[5] = tested on: C. albicans reporter strain ZK3379 (HWP1-lacZ); conditions: for Relative beta-galactosidase expression (filamentous growth): 18 h, 37° C., percentage of control cultures without fatty acids
Procedure: The effects of fatty acids gamma-linolenic acid and alpha-linolenic acid on filamentous growth of Candida albicans were determined in a filamentation assay. C. albicans reporter strain ZK3379 (HWP1-lacZ; Hogan et al., 2004) was propagated in yeast extract-peptone-dextrose (YPD) for 24 h at 30° C. Prior to the assay, cells were washed twice with phosphate-buffered saline (PBS 1×). Flasks (125 ml) containing 10 ml of prewarmed RPMI 1640/20 mM MOPS (pH 7.0) were inoculated with washed cells at a final concentration of 10^6 cells per ml. Working solutions of fatty acids (25 mM and 6.25 mM) were prepared freshly in ethanol 70%. Fatty acids were diluted in medium at final concentrations of 100 μM and 25 μM. An equal volume (40 μl) of ethanol 70% was added to control cultures. In all cultures, the final concentration of ethanol was 0.4% (v/v). Flasks were incubated at 37° C. for 18 h with shaking (ca. 200 RPM). Cells were collected by filtration (Millipore, 0.45 μm) and washed with PBS 1×. beta-galactosidase was assayed according to the method of Rose and Botstein (1983), where crude protein extracts are prepared and the activity is normalized to the amount of protein assayed. Relative amounts of beta-galactosidase activity were used as a measure of the amount of filamentous growth.

[6] = Candida albicans, SC5314, 15 h, read-out: MIC, antihyphal growth activity of individual free fatty acids
[7] = Candida albicans, SC5314, read-out: MIC, antihyphal growth activity of individual free fatty acids
[8] = Candida albicans, SC5314, commercial free fatty acids, complete inhibition of germination, 15 h, 37° C., gravimetrical quantification, read-out: MIC, antihyphal growth activity of individual free fatty acids
[9] = Candida albicans, SC5314, same MIC in μg/ml (in brackets), commercial free fatty acids, gravimetrical quantification, read-out: MIC, antihyphal growth activity of individual free fatty acids
[10] = commercial free fatty acids, complete inhibition of germination, 15 h, 37° C., gravimetrical quantification, read-out: MIC, antihyphal growth activity of individual free fatty acids

Compound	MIC [1, 6]	MIC [1, 7]	activity at inhibiting C. albicans germination [1]	MIC [1, 8]	MIC [1, 9]	MIC [1, 10]	other results
CCCCCCCCCCCCCC(=O)O [14:0, myristic acid, reference compound]	> 81 µM	> 18.5 µg/mL	inactive	–	–	–	–
CCCCCCCCCCCCCCC(=O)O [15:0, pentadecanoic acid, reference compound]	–	–	inactive	> 81 µM	> 19.6 µg/mL	–	–
CCCCCCCCCCCCCCCCC(=O)O [17:0, heptadecanoic acid, reference compound]	–	–	inactive	> 81 µM	> 21.9 µg/mL	–	–
CCCCCCCCCCCC(=O)O [12:0, lauric acid]	–	–	–	9 µM	1.8 µg/mL	9 µM	killing C. albicans yeast cells (C. albicans yeast cells): highly active; toxicity for mammalian cells in vitro (mammalian cells): not toxic; germ tube emergence and elongation [2]: completely inhibited the emergence of germ tubes
CCCCC/C=C\C/C=C\CCCCCCCC(=O)O [18:2(n-6), linoleic acid]	–	–	–	81 µM	22.7 µg/mL	81 µM	germ tube emergence and elongation [2]: produced germ tubes (2-4 h), but their further elongation was blocked
CCCCCC/C=C\CCCCCCCC(=O)O [16:1(n-7), palmitoleic acid]	–	–	–	9 µM	2.29 µg/mL	9 µM	toxicity for C. albicans blastospores ([2]; Lee's medium, data not shown): toxic; appearance of germ tubes ([2]; Spider and HFM7 media): partially inhibited the appearance of germ tubes
CC(C)CCCCCCCCCC(=O)O [12-methyldodecanoic acid (C13:0 i)]	–	–	–	–	–	–	CC50 at 24 h [3]: 70 µM; IC50 [4]: ~49 µM; IC50 (A. fumigatus; Aspergillus fumigatus, 40 h, Sabouraud, 30° C., commercial FFA): ~283 µM
CCCCCCCCCCCCCCCCCC(=O)O [18:0, stearic acid, reference compound]	> 81 µM	> 23 µg/mL	inactive	–	–	–	–
conjugated linoleic acid [18:2(CLA 9c-11t)]	–	–	–	–	–	9 µM	MIC, antihyphal growth activity of individual free fatty acids ([1]; same MIC in μg/ml (in brackets), commercial free fatty acids, gravimetrical quantification): 2.52 µg/mL; germ tube emergence and elongation [2]: produced germ tubes (2-4 h), but their further elongation was blocked
CCCCC/C=C\C/C=C\C/C=C\C/C=C\CCCC(=O)O [20:4(n-6), arachidonic acid]	–	–	–	27 µM	8.22 µg/mL	27 µM	appearance of germ tubes ([2]; Spider and HFM7 media): partially inhibited the appearance of germ tubes; appearance of germ tubes ([2]; dextrose-free Sabouraud and Lee's inducing media): strongly inhibited the appearance of germ tubes
CCCCC/C=C\C/C=C\C/C=C\CCCCC(=O)O [gamma-linolenic acid (C18:3n-6), gamma-linolenic acid]	–	–	–	–	–	–	Relative beta-galactosidase expression (filamentous growth) ([5]; 25 μM): 5.9 (±6.8) %; Relative beta-galactosidase expression (filamentous growth) ([5]; 100 μM): 0.5 (±0.7) %; germination of C. albicans ([5]; 100 μM, RPMI 1640/20 mM MOPS (pH 7.0), HWP1-LacZ strain): completely inhibited; antifungal activity in RPMI 1640/20 mM MOPS media ([5]; 100 μM, data not shown): not detected; CC50 at 24 h ([3]; Toxicity (TC50) PBMCs): 41 µM; IC50 [4]: 2.34 µM; IC50 (A. fumigatus; Aspergillus fumigatus; Sabouraud, 30° C., 40 h; commercial FFA): 13.4 µM
CCCCCCCCCCCCCCCC(=O)O [16:0, palmitic acid, reference compound]	> 81 µM	> 20.8 µg/mL	inactive	–	–	–	–
CCCCCCCC/C=C\CCCCCCCC(=O)O [18:1(n-9), oleic acid, reference compound]	> 81 µM	> 18.5 µg/mL	no or weak activity	–	–	–	activity against the germination of C. albicans ([2]; all inducing media but HFM7): weak or no activity
